Test results from patent publication US11504395B2, “Oral pyrophosphate for use in reducing tissue calcification” (Stichting Het Nederlands Kanker Instituut-Antoni van …, priority 2016, dated 2022).
Where two headings read alike, the source gives them in different places.

Tests used:
[1] = tested on: Abcc6−/− mice
Method: The calcium content of heart tissue was determined.
(§1) All animals were housed in approved animal facilities at the Research Center for Natural Sciences, Hungarian Academy of Sciences. Mice were kept under routine laboratory conditions with 12 hour light-dark cycle with ad libitum access to water and chow. The RCNS, Hungarian Academy of Sciences Institutional Animal Care and Use Committees approved this study. Experiments have been conducted according to national guidelines. Cryo injury was performed and tissue calcium content was determined as described by Brampton, et al. ((2014) Am J Pathol. 184, 159-70). Calcification of the vibrissae was studied by histochemistry following the method described Klement, et al. ((2005) Mol Cell Biol. 25, 8299-310. The number of calcified vibrissae (hair capsules) was counted independently and the onset of tiptoe walking phenotype was determined by two investigators in a blinded fashion.
Abcc6^−/− mice faithfully recapitulate human PXE, with calcifying lesions found in skin, eyes and blood vessels. A drawback of the Abcc6^−/− mice is the relatively late onset of the first lesions, making this model less convenient for rapid screening of new treatments.

[2] = tested on: Tiptoe walking (ttw) mice
Method: as §1
Tiptoe walking (ttw) mice have an inactivating mutation in Enpp1 and represent a model for GACI.

O.O.O.O.O.O.O.O.O.O.O=P([O-])([O-])OP(=O)([O-])[O-].[Na+].[Na+].[Na+].[Na+] [PPi, Sodium pyrophosphate tetrabasic decahydrate]
cardiac calcification (ICC) induced by cryo-injury ([1]; IP delivery, 6 mg PPi/kg body weight for 7 days, Abcc6−/− mice, data not shown): reduced | PPi concentration giving maximal inhibition of ICC ([1]; PPi in drinking water, dose-dependent inhibition, FIG. 1): 10 mM | calcification of the dermal sheet surrounding the vibrissae ([2]; 10 mM oral PPi during pregnancy and lactation and continued in pups after weaning, ttw mice, FIG. 3): greatly reduced | calcification of the dermal sheet surrounding the vibrissae ([2]; PPi provided during lactation, ttw mice): no significant impact | calcification of the dermal sheet surrounding the vibrissae ([2]; ttw pups treated with PPi only after weaning): no different from the control-treated group
